Laboratory results reported in ChEMBL document CHEMBL4130525, “gem-Dinitroalkyl Benzenes: A Novel Class of IOP-Lowering Agents for the Treatment of Ocular Hypertension” (ACS Med Chem Lett, 2017).
Several values for one entry are separate records, joined by “and”; a condition that tells them apart may be missing. Equal values may be shown once. Activity calls are given as the source filed them. The calls are words filed in the database; no cut-off is given here.

Test system: not listed separately
Assay: Induction of NO release assessed as nitrite formation at 0.1 mM in phosphate buffer saline at pH 7.4 in presence of 5 mM of L-cysteine measured after 1 hr by Griess assay
Type: functional
Settings: not given

SMILES | Activity [%]
CC(c1ccc(C(F)(F)F)cc1)([N+](=O)[O-])[N+](=O)[O-] | 0.8
CC(c1ccccc1)([N+](=O)[O-])[N+](=O)[O-] | < 0.5
Cc1ccc(C(C)([N+](=O)[O-])[N+](=O)[O-])cc1 | < 0.5
COCCOCCOCCOc1ccc(C(C)([N+](=O)[O-])[N+](=O)[O-])cc1 | 2.7
COc1ccc(C(C)([N+](=O)[O-])[N+](=O)[O-])cc1 | 3.5

Test system: not listed separately
Assay: Lipophilicity, log P of the compound by shake flask method
Type: physicochemical
Settings: octanol/water

SMILES | logP
CC(c1ccc(C(F)(F)F)cc1)([N+](=O)[O-])[N+](=O)[O-] | 2.92
CC(c1ccccc1)([N+](=O)[O-])[N+](=O)[O-] | 2.34
Cc1ccc(C(C)([N+](=O)[O-])[N+](=O)[O-])cc1 | 2.69
COCCOCCOCCOc1ccc(C(C)([N+](=O)[O-])[N+](=O)[O-])cc1 | 1.63
COc1ccc(C(C)([N+](=O)[O-])[N+](=O)[O-])cc1 | 2.2

Test system: not listed separately
Assay: Induction of NO release assessed as nitrite formation at 0.1 mM in phosphate buffer saline at pH 7.4 in absence of L-cysteine measured up to 24 hrs by Griess assay
Type: functional
Settings: not given

SMILES | Activity
COCCOCCOCCOc1ccc(C(C)([N+](=O)[O-])[N+](=O)[O-])cc1 | Active
COc1ccc(C(C)([N+](=O)[O-])[N+](=O)[O-])cc1 | Active

Test system: not listed separately
Assay: n-Octanol-water distribution coefficient, log D of the compound at pH 7.4 after 20 mins by UV-spectrphotometric based shake-flask method
Type: physicochemical
Settings: not given

SMILES | logD at 20 min
COc1ccc(C([N+](=O)[O-])[N+](=O)[O-])cc1 | -1.21

Test system: Oryctolagus cuniculus
Assay: Antiglaucoma activity in carbomer-induced New Zealand albino rabbit transient ocular hypertensive model assessed as reduction in IOP at 1% dose administered topically measured after 24 hrs
Type: functional, organism-based
Settings: not given

SMILES | Activity
Cc1ccc(C(C)([N+](=O)[O-])[N+](=O)[O-])cc1 | Dose-dependent effect

Test system: not listed separately
Assay: Induction of NO release assessed as nitrite formation at 0.1 mM in phosphate buffer saline at pH 7.4 in presence of 5 mM of L-cysteine measured up to 24 hrs by Griess assay
Type: functional
Settings: not given

SMILES | Activity
COCCOCCOCCOc1ccc(C(C)([N+](=O)[O-])[N+](=O)[O-])cc1 | Active
COc1ccc(C(C)([N+](=O)[O-])[N+](=O)[O-])cc1 | Active

Test system: not listed separately
Assay: Induction of NO release assessed as nitrite formation at 0.1 mM in phosphate buffer saline at pH 7.4 in absence of L-cysteine measured after 1 hr by Griess assay
Type: functional
Settings: not given

SMILES | Activity
CC(c1ccc(C(F)(F)F)cc1)([N+](=O)[O-])[N+](=O)[O-] | inactive
CC(c1ccccc1)([N+](=O)[O-])[N+](=O)[O-] | inactive
Cc1ccc(C(C)([N+](=O)[O-])[N+](=O)[O-])cc1 | inactive
COCCOCCOCCOc1ccc(C(C)([N+](=O)[O-])[N+](=O)[O-])cc1 | 2.6%
COc1ccc(C(C)([N+](=O)[O-])[N+](=O)[O-])cc1 | 3%

Test system: Thoracic aorta
Assay: Vasodilatory activity in denuded Wistar rat thoracic aorta assessed as relaxation of L-phenylephrine-induced contractions of aortic strips
Type: functional, tissue-based
Settings: not given

SMILES | EC50
CC(c1ccccc1)([N+](=O)[O-])[N+](=O)[O-] | 50 µM and 24 µM
Cc1ccc(C(C)([N+](=O)[O-])[N+](=O)[O-])cc1 | 4 µM and 20 µM
COCCOCCOCCOc1ccc(C(C)([N+](=O)[O-])[N+](=O)[O-])cc1 | 55 µM and 264 µM

Same assay, conditions: Rattus norvegicus, Thoracic aorta

SMILES | EC50 [µM]
COc1ccc(C([N+](=O)[O-])[N+](=O)[O-])cc1 | 64
CCOC(=O)[N-]c1c[n+](N2CCOCC2)no1 [MOLSIDOMINE] | 18

Test system: not listed separately
Assay: Induction of NO release assessed as nitrite formation at 0.1 mM in phosphate buffer saline at pH 7.4 in absence of L-cysteine measured after 6 hrs by Griess assay
Type: functional
Settings: not given

SMILES | Activity
CC(c1ccc(C(F)(F)F)cc1)([N+](=O)[O-])[N+](=O)[O-] | inactive
CC(c1ccccc1)([N+](=O)[O-])[N+](=O)[O-] | inactive
Cc1ccc(C(C)([N+](=O)[O-])[N+](=O)[O-])cc1 | inactive
COCCOCCOCCOc1ccc(C(C)([N+](=O)[O-])[N+](=O)[O-])cc1 | 12.8%
COc1ccc(C(C)([N+](=O)[O-])[N+](=O)[O-])cc1 | 24.9%

Test system: not listed separately
Assay: Induction of NO release assessed as nitrite formation at 0.1 mM in phosphate buffer saline at pH 7.4 in presence of 5 mM of L-cysteine measured after 6 hrs by Griess assay
Type: functional
Settings: not given

SMILES | Activity [%]
CC(c1ccc(C(F)(F)F)cc1)([N+](=O)[O-])[N+](=O)[O-] | 4.6
CC(c1ccccc1)([N+](=O)[O-])[N+](=O)[O-] | 2
Cc1ccc(C(C)([N+](=O)[O-])[N+](=O)[O-])cc1 | 1.3
COCCOCCOCCOc1ccc(C(C)([N+](=O)[O-])[N+](=O)[O-])cc1 | 13.8
COc1ccc(C(C)([N+](=O)[O-])[N+](=O)[O-])cc1 | 25.4

Test system: not listed separately
Assay: Induction of NO release assessed as nitrite formation at 0.1 mM in HCl at pH 1.5 in absence of L-cysteine measured after 6 hrs by Griess assay
Type: functional
Settings: not given

SMILES | Activity [%]
COc1ccc(C([N+](=O)[O-])[N+](=O)[O-])cc1 | 4

Test system: not listed separately
Assay: Ionization constant, pKa of the compound in KCl at pH 1.8 by potentiometric titration
Type: physicochemical
Settings: not given

SMILES | pKa
COc1ccc(C([N+](=O)[O-])[N+](=O)[O-])cc1 | 3.9

Test system: Oryctolagus cuniculus
Assay: Antiglaucoma activity in hypertonic saline-induced New Zealand albino rabbit transient ocular hypertensive model assessed as IOP lowering efficacy at 1% dose administered topically immediately after hypertonic saline injection measured at 240 mins post dose
Type: functional
Settings: not given

SMILES | Activity | Drug metabolism
CC(c1ccc(C(F)(F)F)cc1)([N+](=O)[O-])[N+](=O)[O-] | -0.34 mmHg | 
CC(c1ccccc1)([N+](=O)[O-])[N+](=O)[O-] | 0.3 mmHg | 
Cc1ccc(C(C)([N+](=O)[O-])[N+](=O)[O-])cc1 | -0.04 mmHg | 
COCCOCCOCCOc1ccc(C(C)([N+](=O)[O-])[N+](=O)[O-])cc1 | Active | 
COc1ccc(C([N+](=O)[O-])[N+](=O)[O-])cc1 | Active | 
COc1ccc(C(C)([N+](=O)[O-])[N+](=O)[O-])cc1 | Active | 
CCOC(=O)[N-]c1c[n+](N2CCOCC2)no1 [MOLSIDOMINE] | -0.34 mmHg | Metabolite detected

Test system: not listed separately
Assay: Induction of NO release assessed as nitrite formation at 0.1 mM in phosphate buffer saline at pH 7.4 in presence of 5 mM of L-cysteine by Griess assay
Type: functional
Settings: TDE = time-dependent effect

SMILES | Activity
CC(c1ccc(C(F)(F)F)cc1)([N+](=O)[O-])[N+](=O)[O-] | Tde
CC(c1ccccc1)([N+](=O)[O-])[N+](=O)[O-] | Tde
Cc1ccc(C(C)([N+](=O)[O-])[N+](=O)[O-])cc1 | Tde

Test system: Oryctolagus cuniculus
Assay: Antiglaucoma activity in hypertonic saline-induced New Zealand albino rabbit transient ocular hypertensive model assessed as IOP lowering efficacy at 1% dose administered topically immediately after hypertonic saline injection measured at 120 mins post dose
Type: functional
Settings: not given

SMILES | Activity [mmHg]
CC(c1ccc(C(F)(F)F)cc1)([N+](=O)[O-])[N+](=O)[O-] | -10.4
CC(c1ccccc1)([N+](=O)[O-])[N+](=O)[O-] | -10.5
Cc1ccc(C(C)([N+](=O)[O-])[N+](=O)[O-])cc1 | -6.7
COCCOCCOCCOc1ccc(C(C)([N+](=O)[O-])[N+](=O)[O-])cc1 | 0.11
COc1ccc(C([N+](=O)[O-])[N+](=O)[O-])cc1 | -1.1
COc1ccc(C(C)([N+](=O)[O-])[N+](=O)[O-])cc1 | -0.11
CCOC(=O)[N-]c1c[n+](N2CCOCC2)no1 [MOLSIDOMINE] | 0.12

Test system: not listed separately
Assay: Drug metabolism assessed as anisic acid formation after 24 hrs by HPLC analysis
Type: physicochemical
Settings: not given

SMILES | Drug metabolism
COc1ccc(C([N+](=O)[O-])[N+](=O)[O-])cc1 | Dose-dependent effect

Test system: not listed separately
Assay: Induction of NO release assessed as nitrite formation at 0.1 mM in HCl at pH 1.5 in absence of L-cysteine measured after 1 hr by Griess assay
Type: functional
Settings: not given

SMILES | Activity [%]
COc1ccc(C([N+](=O)[O-])[N+](=O)[O-])cc1 | 1.3

Test system: Oryctolagus cuniculus
Assay: Antiglaucoma activity in carbomer-induced New Zealand albino rabbit transient ocular hypertensive model assessed as reduction in IOP at 1% dose administered topically everyday for 5 days measured 1 hr post drug instillation
Type: functional, organism-based
Settings: not given

SMILES | Activity
Cc1ccc(C(C)([N+](=O)[O-])[N+](=O)[O-])cc1 | Active

Test system: not listed separately
Assay: Induction of NO release assessed as nitrite formation at 0.1 mM in phosphate buffer saline at pH 1.5 to 7.4 measured up to 24 hrs by Griess assay
Type: functional
Settings: not given

SMILES | Activity
COc1ccc(C([N+](=O)[O-])[N+](=O)[O-])cc1 | Dose-dependent effect
COc1ccc(C(C)([N+](=O)[O-])[N+](=O)[O-])cc1 | Dose-dependent effect

Test system: Thoracic aorta
Assay: Vasodilatory activity in denuded Wistar rat thoracic aorta assessed as relaxation of L-phenylephrine-induced contractions of aortic strips in presence of 1 uM of soluble guanylate cyclase inhibitor ODQ
Type: functional
Design: scale not given: the % may be the effect or the level left
Settings: not given

SMILES | Activity [%]
CC(c1ccc(C(F)(F)F)cc1)([N+](=O)[O-])[N+](=O)[O-] | 19
Cc1ccc(C(C)([N+](=O)[O-])[N+](=O)[O-])cc1 | 24
COc1ccc(C(C)([N+](=O)[O-])[N+](=O)[O-])cc1 | 40

Test system: Oryctolagus cuniculus
Assay: Antiglaucoma activity in hypertonic saline-induced New Zealand albino rabbit transient ocular hypertensive model assessed as IOP lowering efficacy at 1% dose administered topically immediately after hypertonic saline injection measured at 60 mins post dose
Type: functional
Settings: not given

SMILES | Activity [mmHg]
CC(c1ccc(C(F)(F)F)cc1)([N+](=O)[O-])[N+](=O)[O-] | -6.9
CC(c1ccccc1)([N+](=O)[O-])[N+](=O)[O-] | -5.6
Cc1ccc(C(C)([N+](=O)[O-])[N+](=O)[O-])cc1 | -4.9
COCCOCCOCCOc1ccc(C(C)([N+](=O)[O-])[N+](=O)[O-])cc1 | -12.7
COc1ccc(C([N+](=O)[O-])[N+](=O)[O-])cc1 | -10.7
COc1ccc(C(C)([N+](=O)[O-])[N+](=O)[O-])cc1 | -7.3
CCOC(=O)[N-]c1c[n+](N2CCOCC2)no1 [MOLSIDOMINE] | -4.6
